Assay results reported in ChEMBL document CHEMBL1156072, “Twenty-six years of anti-HIV drug discovery: where do we stand and where do we go?” (J Med Chem, 2010).

Legend:
[1] = Oral bioavailability in rat; format: ADME, organism-based; conditions: in vivo
[2] = Oral bioavailability in dog; format: ADME, organism-based, Canis lupus familiaris; conditions: in vivo

bioavailability [1]: 34%
bioavailability [2]: 30%
SMILES: COc1cc2c(cc1Cc1cccc(Cl)c1F)c(=O)c(C(=O)O)cn2[C@H](CO)C(C)C [ELVITEGRAVIR]
